Experimental data reported in patent US20100331233A1, “CRYSTAL OF XPA AND ERCC1 COMPLEX AND USES THEREOF” (priority 2007, published 2010).
“Also recorded” adds a separate entry of the source. No end group written: not given here.

Target: T1, central domain of ERCC1 (ERCC196-214) (Homo sapiens, UniProt P07992)
T1 construct: His6 (N); made in house; host or cells: E. coli BL21(DE3)
T1 sequence (P07992 96-214): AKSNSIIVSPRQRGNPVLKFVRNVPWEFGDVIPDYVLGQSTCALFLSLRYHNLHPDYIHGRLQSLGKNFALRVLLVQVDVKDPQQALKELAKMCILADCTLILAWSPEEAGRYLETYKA
Assay: Competitive binding equilibrium titrations, fluorescence anisotropy of 6FAM-labeled single-stranded 40mer DNA
Protocol: Binding of a 6FAM-labeled single-stranded DNA 40mer to the central domain of ERCC1 was monitored by fluorescence polarization of the labeled DNA. DNA binding activity is plotted as a function of added XPA67-80 inhibitor. The theoretical curve given by Eq. 9 (solid line) corresponds to the best fit of the data to the dissociation equilibrium constant of 300 nM for the ERCC1-XPA complex.
Competitive binding equilibrium titrations. The equilibrium titrations were performed in a binding buffer containing 20 mM Tris, pH 8.0, 20 mM NaCl, 2 mM betamercaptoethanol. The concentrations of single-stranded 5′ 6-FAM-labeled DNA (5′-CCGGTGGCCAGCGCTCGGCG(T)20; SEQ ID NO:9) and ERCC196-214 were 50 nM and 2.33 μM, respectively, the concentration of the XPA peptide was varied from 0 to 30 μM (FIG. 7). Fluorescence anisotropy measurements were performed as previously reported (Tsodikov et al., 2005). Increasing XPA peptide concentration above 30 μM caused an increase in fluorescence anisotropy and quenching of fluorescence due to nonspecific interactions with the peptide, observed in the presence or absence of ERCC1 (data not shown).
The simplest binding model used in the data analysis consisted of two competitive equilibria, binding of XPA peptide and of the single-stranded 6FAM-labeled 40-mer DNA to the central domain of ERCC1. This model is consistent with the fact that at sufficiently high XPA concentration, the fluorescence anisotropy signal approaches that of unbound DNA. Therefore the two binding equilibria could be written as:
where E, D, X represent the ERCC1, DNA and XPA species, respectively. ED and EX represent ERCC1-DNA and ERCC1-XPA complexes, and KDNA and KXPA are the observed equilibrium association constants, defined in terms of the equilibrium concentrations of the species from Eqs. (2a) and (2b) as:
The approximation made in Equation (4b) is due to the large excess of ERCC1 over DNA at the experimental conditions. It was assumed that each single-stranded 40-mer DNA oligonucleotide contains only one binding site for ERCC1. Because the central domain of ERCC1 occludes 10-15 nucleotides upon binding DNA (1), with a reasonable approximation, a maximum of 2-3 ERCC1 molecules could simultaneously bind to one DNA molecule without significant cooperativity. In this analysis, a value of (KDNA)−1=1.5 μM was used, obtained from the direct titration of ERCC1 at constant concentration (50 nM) of the same DNA oligomer, using the same single site approximation (1). Therefore the value of the equilibrium binding constant for XPA-ERCC1 complex formation, KXPA, should be unaffected by the stoichiometry of ERCC1-DNA binding.
The system of Eqs. 4a, 4b and 4c yields expressions for [E], [X] and [D], which are then used to determined the fraction of bound DNA species, f, as follows:
The observed fluorescence anisotropy, r, is then given by
where r0 and rmax are fluorescent anisotropy values of unbound and fully bound DNA, respectively. […]
XPA competes with single-stranded DNA for binding to ERCC1. Because XPA binds in the groove on ERCC1 (FIG. 2) that was previously implicated in DNA binding activity (Tsodikov et al., 2005), it was determined whether or not XPA competes with single-stranded DNA for binding to ERCC1. DNA binding activity was measured by monitoring fluorescence anisotropy, using single-stranded 40mer oligonucleotide labeled on the 5′ end with 6-carboxyfluorescein. […]

Question: Which results are given for KIIDTGGGFILEEE [XPA67-80]?
Answer: affinity for central domain of ERCC1 relative to single stranded DNA: approximately 3 fold; Kd (best fit of competition titration to Eq. 9, 50 nM DNA, 2.33 μM ERCC196-214, read-out: dissociation equilibrium constant (Kd) of the XPA-ERCC1 complex): 300 nM; EC50 for binding of XPA67-80 (competition with 6FAM single-stranded 40mer DNA, accurate measurement precluded by quenching): in the micromolar range; competition with single-stranded DNA for binding to ERCC1 (fluorescence anisotropy / polarization): does compete with DNA for binding to ERCC1; also recorded: competitive inhibitor; binding of peptide to DNA (single-stranded 40mer, fluorescence anisotropy): does not detectably bind to DNA
